pIC50: −log10 of the molar value.
Tests used:
Tie2 receptor = target: T1, Tie2 receptor (Homo sapiens, UniProt Q02763); test: Cellular Tie2 autophosphorylation assay (Test (b)); type: cell-based; conditions: Ang1 ligand stimulated Tie2 autophosphorylation, e.g. EA.hy926/B3 cells, western blot
T1 construct: one can use natural cell lines or primary cells which are known to express the receptor of choice; endogenous in cells; host or cells: EA.hy926/B3 cells (HUVEC named as alternative)
Excerpt: b. Cellular Tie2 Autophosphorylation Assay
This assay is based on measuring the ability of compounds to inhibit autophosphorylation of the Tie2 receptor which normally leads to the production of “activated” receptor that in turn initiates the particular signal transduction pathways associated with the receptor function.
Autophosphorylation can be achieved by a number of means. It is known that expression of recombinant kinase domains in baculoviral systems can lead to the production of phosphorylated and activated receptor. […] In these cases the natural, external cell surface domain of the receptor has been replaced with that of a domain which is known to be readily dimerised via the addition of the appropriate ligand (e.g. TrkA-Tie2/NGF ligand (Marron, M. B., et al., 2000 Journal of Biological Chemistry: 275:39741-39746) or C-fms-Tie-1/CSF-1 ligand (Kontos, C. D., et al., 2002 Molecular and Cellular Biology: 22, 1704-1713). Thus when the chimaeric receptor expressed in a host cell line and the respective ligand is added, this induces autophosphorylation of the chimeric receptor's kinase domain. This approach has the advantage of often allowing a known (and often easily obtained) ligand to be used instead of having to identify and isolate the natural ligand for each receptor of interest. […]

[1] = target: T2, Tie2 receptor tyrosine kinase (Homo sapiens, UniProt Q02763); test: In vitro receptor tyrosine kinase inhibition assay (Test (a), ELISA based); type: biochemical; conditions: recombinant human kinase domain lysate, synthetic peptide substrate, ATP 5 micromolar or Km
T2 construct: consist of only the intracellular portion C-terminal portion of the respective receptor, within which is found the kinase domain; made in house; host or cells: baculovirus/Sf21 insect cells, used as cleared lysate
Method: a. In Vitro Receptor Tyrosine Kinase Inhibition Assay
To test for inhibition of Tie2 receptor tyrosine kinase, compounds are evaluated in a non-cell based protein kinase assay by their ability to inhibit the protein kinase enzyme phosphorylation of a tyrosine containing polypeptide substrate in an ELISA based microtitre plate assay. In this particular case, the assay was to determine the IC50, for three different recombinant human tyrosine kinases Tie2, KDR and Flt.
To facilitate production of the tyrosine kinases, recombinant receptor genes were produced using standard molecular biology cloning and mutagenesis techniques. […]
Constitutive kinase activity of these recombinant proteins was determined by their ability to phosphorylate a synthetic peptide (made up of a random co-polymer of Glutamic Acid, Alanine and Tyrosine in the ratio of 6:3:1). […]
The immobilised phospho-peptide product of the reaction was detected by immunological methods. […] Following extensive washing with PBS-T, HRP activity in each well of the plate was measured colorimetrically using 22′-Azino-di-[3-ethylbenzthiazoline sulfonate (6)] diammonium salt crystals ABTS (Sigma P4922—prepared as per manufactures instructions) as a substrate incubated for 30-45 minutes to allow colour development, before 100 ul of 1M H2SO4 was added to stop the reaction. […]

T1 sequence (Q02763 23-1124): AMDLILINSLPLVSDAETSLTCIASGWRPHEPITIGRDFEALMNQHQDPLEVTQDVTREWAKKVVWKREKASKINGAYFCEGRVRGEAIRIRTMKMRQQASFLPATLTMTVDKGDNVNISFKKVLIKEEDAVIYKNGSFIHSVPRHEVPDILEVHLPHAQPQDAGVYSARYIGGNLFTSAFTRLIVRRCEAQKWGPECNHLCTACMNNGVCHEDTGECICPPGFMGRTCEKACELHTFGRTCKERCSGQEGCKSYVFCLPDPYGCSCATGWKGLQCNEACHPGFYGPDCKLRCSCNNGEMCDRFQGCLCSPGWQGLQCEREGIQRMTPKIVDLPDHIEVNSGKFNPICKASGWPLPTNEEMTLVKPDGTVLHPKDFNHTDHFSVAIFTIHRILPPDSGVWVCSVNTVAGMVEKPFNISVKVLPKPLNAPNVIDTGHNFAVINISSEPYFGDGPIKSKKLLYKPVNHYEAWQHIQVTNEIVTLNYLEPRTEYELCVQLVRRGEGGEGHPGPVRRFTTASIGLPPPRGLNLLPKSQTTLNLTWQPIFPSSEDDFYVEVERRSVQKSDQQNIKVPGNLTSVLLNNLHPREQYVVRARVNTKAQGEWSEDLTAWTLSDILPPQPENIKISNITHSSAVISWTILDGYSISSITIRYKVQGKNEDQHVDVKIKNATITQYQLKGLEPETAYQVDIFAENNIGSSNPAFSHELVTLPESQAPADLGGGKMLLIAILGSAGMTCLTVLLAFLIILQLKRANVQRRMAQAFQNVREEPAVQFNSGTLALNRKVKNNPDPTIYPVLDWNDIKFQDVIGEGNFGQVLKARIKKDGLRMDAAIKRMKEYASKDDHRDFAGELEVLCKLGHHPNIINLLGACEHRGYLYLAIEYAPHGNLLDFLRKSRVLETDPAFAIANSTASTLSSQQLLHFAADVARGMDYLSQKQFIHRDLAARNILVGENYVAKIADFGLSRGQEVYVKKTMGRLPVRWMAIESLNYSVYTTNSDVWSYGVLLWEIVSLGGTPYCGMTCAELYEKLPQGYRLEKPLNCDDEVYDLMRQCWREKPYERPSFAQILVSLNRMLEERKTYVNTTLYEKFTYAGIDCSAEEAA
T2 sequence (Q02763 770-1124 limits assumed): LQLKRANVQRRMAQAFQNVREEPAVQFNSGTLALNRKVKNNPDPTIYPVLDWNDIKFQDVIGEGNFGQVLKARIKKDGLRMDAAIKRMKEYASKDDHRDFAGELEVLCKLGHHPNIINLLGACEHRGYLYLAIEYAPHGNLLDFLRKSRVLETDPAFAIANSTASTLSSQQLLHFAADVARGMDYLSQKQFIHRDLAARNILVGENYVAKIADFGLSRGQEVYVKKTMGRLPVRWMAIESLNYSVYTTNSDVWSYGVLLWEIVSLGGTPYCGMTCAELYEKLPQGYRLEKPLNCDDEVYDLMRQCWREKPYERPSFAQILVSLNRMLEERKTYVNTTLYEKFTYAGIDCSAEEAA

SMILES: Cn1cnc(-c2cccc(NC(=O)Nc3cccc(F)c3)c2)c1-c1cc2c(N)ncnc2s1 [Example 1, N-{3-[5-(4-Aminothieno[2,3-d]pyrimidin-6-yl)-1-methyl-1H-imidazol-4-yl]phenyl}-N′-(3-fluorophenol)urea]
- pIC50 (Tie2 receptor): 6.40
- pIC50 [1]: 4.80

— patent US7476677B2, “Substituted thieno- and thiazolo- [2,3-d]pyrimidines and [2,3-c]pyridines as inhibitors of Tie2” (AstraZeneca AB, priority 2004, dated 2009)
